In patent US20260317319A1, “NOVEL ERGOLINES AND METHODS OF TREATING MOOD DISORDERS” (Gilgamesh Pharma Inc., priority 2023, published 2026):
Read-outs that look alike come from different tables or passages of the source.

Assays:
[1] = molecular target: T1, 5-HT2A receptor (Homo sapiens, UniProt P28223); assay: biochemical; assay type: binding; design: expressed in transfected cells; host or cells: HEK293, stably transfected; details: radioligand binding, 5-HT2A
Summary of the method: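 Affinity was measured in radioligand binding experiments using [^3H]ketanserin as the labelled ligand, following methods adapted from published procedures.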

[2] = molecular target: T1, 5-HT2A receptor; assay: cell-based; assay type: cell-based; design: expressed in transfected cells; host or cells: HEK293, stably transfected; details: HEK293, agonist, Ca2+ flux, HEK293, max dose; read-out: 5-HT2A % Act @ Max Dose
Method: (§1) Functional Assays at 5-HT2A, 5-HT2B, and 5-HT1A. Agonist activity at 5-HT2A, 5-HT2B, 5HT2C and 5-HT1A receptors was determined using a FLIPR Ca^2+ flux assay at WuXi AppTec (Hong Kong) Limited according to their standard protocols. Briefly, stably transfected cells expressing the receptor of interest and Gα15 in the case of 5-HT1A (HEK293 for 5-HT2A and 5-HT2B; CHO cells for 5-HT1A) were grown and plated in a 384 well plate and incubated at 37° C. and 5% CO2 overnight. A solution of 250 mM probenecid in 1 mL FLIPR assay buffer was prepared fresh. This was combined with a fluorescent dye (Fluo-4 Direct™) to make a final assay concentration of 2.5 mM. […] The fluorescent dye was then added to the assay plate along with assay buffer to a final volume of 40 μL. The cell plate was incubated for 50 min at 37° C. and 5% CO2 and placed into the FLIPR Tetra along with the compound plate. 10 μL of references and compounds were then transferred from the compound plate into the cell plate and the fluorescent signal was read.

[3] = molecular target: T2, 5-HT2B receptor (Homo sapiens, UniProt P41595); assay: cell-based; assay type: cell-based; details: HEK293, agonist, Ca2+ flux, HEK293, max dose; read-out: 5-HT2B % Act @ Max Dose
T2 construct: expressed in transfected cells; host or cells: HEK293, stably transfected
Method: as §1

[4] = molecular target: T3, 5-HT1B receptor (Homo sapiens, UniProt P28222); assay: cAMP accumulation functional assay at 5-HT1B; assay type: cell-based; details: agonist, cAMP accumulation, max dose; read-out: 5-HT1B % Act @ Max Dose
T3 construct: expressed in transfected cells
Method: Functional Assay at 5-HT1B. Agonist activity at 5-HT1B was determined using a CAMP accumulation protocol at WuXi AppTec (Hong Kong) Limited according to their standard protocols. Briefly, stably transfected cells were plated in an OptiPlate-384 well plate, incubated at RT for 60 mins, and cAMP standard solution (800 nM, 10 μL) was added to the blank well. Then, 10 μL detection reagent was added to each well, the plate incubated for 60 mins at RT, and the plate read using En Vision.

[5] = molecular target: T4, 5-HT1A receptor (Homo sapiens, UniProt P08908); assay: cell-based; details: CHO, agonist, Ca2+ flux, CHO cells with Gα15, max dose; read-out: 5-HT1A % Act @ Max Dose
T4 construct: expressed in transfected cells; host or cells: CHO cells, stably transfected
T4 sequence (P08908 1-422): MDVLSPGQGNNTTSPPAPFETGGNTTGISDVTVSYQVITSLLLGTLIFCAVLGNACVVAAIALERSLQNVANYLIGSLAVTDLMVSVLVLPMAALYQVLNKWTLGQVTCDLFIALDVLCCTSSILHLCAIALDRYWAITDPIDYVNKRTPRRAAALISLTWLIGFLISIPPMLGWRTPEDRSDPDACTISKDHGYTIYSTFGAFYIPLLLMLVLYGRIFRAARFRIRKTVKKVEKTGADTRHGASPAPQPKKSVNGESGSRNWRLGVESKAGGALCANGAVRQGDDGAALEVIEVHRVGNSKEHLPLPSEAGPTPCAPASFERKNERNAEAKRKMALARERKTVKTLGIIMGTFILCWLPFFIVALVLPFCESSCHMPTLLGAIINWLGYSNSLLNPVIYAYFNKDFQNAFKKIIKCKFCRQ
Method: as §1

[6] = in vitro; assay type: in vitro ADME, human; details: HLM 0.50 mg/mL, NADPH 1 mM, 1 μM compound, pH 7.4, 37° C., 60 min
[7] = molecular target: T1, 5-HT2A receptor; assay: cell-based; assay type: cell-based; details: agonist, beta-arrestin recruitment; for EC50: PathHunter, read-out: 5-HT2A Arrestin EC50; for Emax: max dose, read-out: 5-HT2A Arrestin % Act @ Max Dose
Method: Arrestin Functional Assay at 5-HT2A. Recruitment of beta-arrestin was determined using a PathHunter assay at Eurofins DiscoverX (Fremont, CA) according to their standard protocols. PathHunter GPCR beta-arrestin assays take advantage of DiscoverX's proprietary Enzyme Fragment Complementation technology. The GPCR is fused in frame with a small enzyme donor fragment ProLink™ (PK) and co-expressed in cells stably expressing a fusion protein of beta-arrestin and the larger, N-terminal deletion mutant of beta-galactosidase. Activation of the GPCR (5-HT2A receptor in this case) stimulates binding of beta-arrestin to the PK-tagged GPCR and forces complementation of the two enzyme fragments, resulting in the formation of an active beta-galactosidase enzyme. This interaction leads to an increase in enzyme activity that can be measured using chemiluminescent PathHunter Detection Reagents. Briefly, PathHunter cells expressing 5-HT2A receptors were seeded in a volume of 20 μL into 384-well plates and incubated at 37° C. for the appropriate time prior to testing. […] Plates were then imaged on a microplate reader and the agonist activity was calculated using the following formula: % Activity=100%×(mean RLU of test sample-mean RLU of vehicle control)/(mean MAX control ligand-mean RLU of vehicle control), where RLU=relative light units.

[8] = in vitro; assay type: in vitro ADME, mouse; details: MLM (male CD-1) 0.50 mg/mL, NADPH 1 mM, 1 μM compound, pH 7.4, 37° C., 60 min
Text: MLM Stability Pooled MLM from male CD-1 mice (BIOIVT M00501) were used.

[9] = in vitro; assay type: in vitro ADME, rat; details: RLM (male Sprague-Dawley) 0.50 mg/mL, NADPH 1 mM, 1 μM compound, pH 7.4, 37° C., 60 min
Text: RLM Stability Pooled RLM from male Sprague-Dawley rats (Xenotech R1000) were used.

T2 sequence (P41595 whole entry): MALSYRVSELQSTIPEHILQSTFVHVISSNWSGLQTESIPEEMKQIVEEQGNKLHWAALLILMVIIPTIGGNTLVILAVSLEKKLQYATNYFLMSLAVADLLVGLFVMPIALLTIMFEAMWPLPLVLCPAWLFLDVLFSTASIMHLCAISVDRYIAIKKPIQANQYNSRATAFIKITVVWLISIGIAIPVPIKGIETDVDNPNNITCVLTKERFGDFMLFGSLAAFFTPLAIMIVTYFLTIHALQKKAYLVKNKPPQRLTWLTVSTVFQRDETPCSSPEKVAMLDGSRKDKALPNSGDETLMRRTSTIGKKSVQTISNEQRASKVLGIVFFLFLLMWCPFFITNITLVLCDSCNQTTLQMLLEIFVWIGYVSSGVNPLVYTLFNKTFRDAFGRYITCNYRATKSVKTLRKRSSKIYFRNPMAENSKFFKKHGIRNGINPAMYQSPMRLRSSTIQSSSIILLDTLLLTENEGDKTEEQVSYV
T3 sequence (P28222 whole entry): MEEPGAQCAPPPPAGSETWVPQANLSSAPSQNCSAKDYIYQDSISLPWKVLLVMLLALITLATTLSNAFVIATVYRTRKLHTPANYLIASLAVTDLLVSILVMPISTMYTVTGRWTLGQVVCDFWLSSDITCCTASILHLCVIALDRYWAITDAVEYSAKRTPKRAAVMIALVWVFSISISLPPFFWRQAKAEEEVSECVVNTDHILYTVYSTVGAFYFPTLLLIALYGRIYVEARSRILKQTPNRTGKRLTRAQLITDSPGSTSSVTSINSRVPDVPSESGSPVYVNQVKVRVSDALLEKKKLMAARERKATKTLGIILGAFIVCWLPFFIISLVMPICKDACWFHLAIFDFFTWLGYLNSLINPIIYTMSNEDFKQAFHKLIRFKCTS
T1 sequence (P28223 whole entry): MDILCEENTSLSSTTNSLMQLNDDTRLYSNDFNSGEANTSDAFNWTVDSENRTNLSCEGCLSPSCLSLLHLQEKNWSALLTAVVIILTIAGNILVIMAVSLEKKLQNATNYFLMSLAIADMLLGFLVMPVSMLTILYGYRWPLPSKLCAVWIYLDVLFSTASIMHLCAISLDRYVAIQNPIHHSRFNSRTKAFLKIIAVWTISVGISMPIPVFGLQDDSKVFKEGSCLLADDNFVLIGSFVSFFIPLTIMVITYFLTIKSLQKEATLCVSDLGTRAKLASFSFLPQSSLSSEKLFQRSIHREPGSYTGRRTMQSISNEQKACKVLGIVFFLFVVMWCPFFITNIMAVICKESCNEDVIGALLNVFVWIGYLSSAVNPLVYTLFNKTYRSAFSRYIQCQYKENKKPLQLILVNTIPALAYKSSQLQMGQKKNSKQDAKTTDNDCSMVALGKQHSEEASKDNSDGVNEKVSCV

| SMILES | potency in receptor binding [1] | Emax [2] [%] | Emax [3] [%] | Emax [4] [%] | Emax [5] [%] | Intrinsic clearance (Clint) [6] [µL/min/mg] | half-life (t1/2) [6] [min] | EC50 [7] [nM] | Emax [7] [%] | Intrinsic clearance (Clint) [8] [µL/min/mg] | half-life (t1/2) [8] [min] | Intrinsic clearance (Clint) [9] [µL/min/mg] | half-life (t1/2) [9] [min] |
| --- | --- | --- | --- | --- | --- | --- | --- | --- | --- | --- | --- | --- | --- |
| CCCN1C[C@H](C(=O)N(CC)CC)C=C2c3cccc4c3C(CN4)C[C@H]21 (mixture of isomers) [Compound 36, (6aR,9R)—N,N-diethyl-7-propyl-4,5,5a,6,6a,7,8,9-octahydroindolo[4,3-fg]quinoline-9-carboxamide] | reduced in potency compared to their dehydro counterparts | 77.5 | 111 | 97.5 | 88.7 |  |  |  |  |  |  |  |  |
| CCN(CC)C(=O)[C@@H]1C=C2c3cccc4[nH]cc(c34)C[C@H]2N(Cc2ccccc2O)C1 [Compound 16, (6aR,9R)—N,N-diethyl-7-(2-hydroxybenzyl)-4,6,6a,7,8,9-hexahydroindolo[4,3-fg]quinoline-9-carboxamide] |  | 62 | 26.5 | 90.1 | 22.3 | 285.8 | 4.9 | 3.96 | 47.6 | 1053.2 | 1.3 | 616.3 | 2.2 |
| CCN(CC)C(=O)[C@@H]1C=C2c3cccc4[nH]cc(c34)C[C@H]2N(CCc2ccccn2)C1 [Compound 23, (6aR,9R)—N,N-diethyl-7-(2-(pyridin-2-yl)ethyl)-4,6,6a,7,8,9-hexahydroindolo[4,3-fg]quinoline-9-carboxamide] |  | 85.4 | 12.5 | 83.7 | 46.2 | 193.3 | 7.2 | 5.97 | 65.2 | 768.7 | 1.8 | 331.7 | 4.2 |
| CCN(CC)C(=O)[C@@H]1C=C2c3cccc4[nH]cc(c34)C[C@H]2N(Cc2ccccn2)C1 [Compound 22, (6aR,9R)—N,N-diethyl-7-(pyridin-2-ylmethyl)-4,6,6a,7,8,9-hexahydroindolo[4,3-fg]quinoline-9-carboxamide] |  | 64.5 | 7.74 | 89.2 | 57.3 | 58.2 | 23.8 | 6.33 | 40.6 | 150.0 | 9.2 | 104.8 | 13.2 |
| CCN(CC)C(=O)[C@@H]1C=C2c3cccc4[nH]cc(c34)C[C@H]2N(CCc2cccc(OC)c2)C1 [Compound 20, (6aR,9R)—N,N-diethyl-7-(3-methoxyphenethyl)-4,6,6a,7,8,9-hexahydroindolo[4,3-fg]quinoline-9-carboxamide] |  | 77.2 | 3.6 | 34.6 | 3.85 | 649.2 | 2.1 | 1.79 | 83.5 | 1548.2 | 0.9 | 1147.6 | 1.2 |
| CCN(CC)C(=O)[C@@H]1C=C2c3cccc4[nH]cc(c34)C[C@H]2N(CCc2ccc(OC)cc2)C1 [Compound 21, (6aR,9R)—N,N-diethyl-7-(4-methoxyphenethyl)-4,6,6a,7,8,9-hexahydroindolo[4,3-fg]quinoline-9-carboxamide] |  | 51.2 | 1.73 | 79.1 | 8.2 | 367.7 | 3.8 | 5.85 | 93.7 | 717.4 | 1.9 | 323.2 | 4.3 |
